Experimental data as given in US7709484B1, “Substituted melanocortin receptor-specific piperazine compounds” (Palatin Technologies, Inc., priority 2004, dated 2010).

What was measured:
[1] = biological target: T1, B-16 mouse melanoma cells (containing MC1-R) (Mus musculus, UniProt Q01727); assay: Competitive inhibition binding assay, 125I-NDP-α-MSH, B-16 mouse melanoma cell membranes; conditions: 1 μM test compound; 0.4 nM 125I-NDP-α-MSH; mean of triplicate; results less than 0% reported as 0%; read-out: Inhibition at 1 μM MC1-R (murine)
T1 construct: B-16 mouse melanoma cells (containing MC1-R); endogenous in cells; host or cells: B-16 mouse melanoma cells
T1 sequence (Q01727 whole entry): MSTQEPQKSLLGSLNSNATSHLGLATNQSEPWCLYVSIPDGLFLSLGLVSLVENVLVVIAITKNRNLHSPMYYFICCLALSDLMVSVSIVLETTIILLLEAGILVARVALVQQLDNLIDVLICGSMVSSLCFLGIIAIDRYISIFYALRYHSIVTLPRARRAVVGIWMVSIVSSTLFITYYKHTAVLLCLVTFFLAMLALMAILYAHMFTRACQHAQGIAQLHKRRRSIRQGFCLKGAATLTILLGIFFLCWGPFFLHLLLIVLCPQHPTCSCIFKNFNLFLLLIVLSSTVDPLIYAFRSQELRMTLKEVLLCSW
Method: (§1) Competitive inhibition assay. A competitive inhibition binding assay was conducted using membranes prepared from hMC1-R or B-16 mouse melanoma cells (containing MC1-R), hMC3-R, hMC4-R, and hMC5-R, and using 0.4 nM ^125I-NDP-α-MSH (New England Nuclear, Boston, Mass., USA) in 50 mM HEPES buffer containing 1 mM MgCl2, 2 mM CaCl2, and 5 mM KCl, at pH 7.2. The assay tube also contained a chosen concentration of the test compound of this invention, typically a 1 μM concentration, for determining its efficacy in inhibiting the binding of ^125I-NDP-α-MSH to its receptor. Non-specific binding was measured by complete inhibition of binding of ^125I-NDP-α-MSH in the assay with the presence of 1 μM α-MSH.
(§2) Incubation was for 90 minutes at room temperature, after which the assay mixture was filtered and the membranes washed three times with ice cold buffer. The filter was dried and counted in a gamma counter for remaining radioactivity bound to the membranes. 100% specific binding was defined as the difference in radioactivity (cpm) bound to cell membranes in the absence and presence of 1 μM α-MSH. The cpm obtained in the presence of test compounds are normalized with respect to 100% specific binding to determine the percent inhibition of ^125I-NDP-a-MSH binding. Each assay was conducted in triplicate and the actual mean values are described, with results less than 0% reported as 0%.

hMC5-R = hMC5-R (Homo sapiens, UniProt P33032); assay: Competitive inhibition binding assay, 125I-NDP-α-MSH, hMC5-R membranes; conditions: 1 μM test compound; 0.4 nM 125I-NDP-α-MSH; mean of triplicate; results less than 0% reported as 0%; read-out: Inhibition at 1 μM MC5-R
Chain of hMC5-R (P33032 whole entry): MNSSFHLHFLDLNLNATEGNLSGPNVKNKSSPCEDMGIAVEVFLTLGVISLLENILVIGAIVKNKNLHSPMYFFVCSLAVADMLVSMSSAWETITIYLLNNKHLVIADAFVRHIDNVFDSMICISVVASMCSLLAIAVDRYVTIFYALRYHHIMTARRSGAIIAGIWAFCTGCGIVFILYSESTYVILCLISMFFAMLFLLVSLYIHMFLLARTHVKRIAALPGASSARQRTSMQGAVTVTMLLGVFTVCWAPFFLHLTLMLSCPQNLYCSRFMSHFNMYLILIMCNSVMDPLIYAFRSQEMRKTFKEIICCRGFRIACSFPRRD
Method: as §1, §2

hMC3-R = hMC3-R (Homo sapiens, UniProt P41968); assay: Competitive inhibition binding assay, 125I-NDP-α-MSH, hMC3-R membranes; conditions: 1 μM test compound; 0.4 nM 125I-NDP-α-MSH; mean of triplicate; results less than 0% reported as 0%; read-out: Inhibition at 1 μM MC3-R
Chain of hMC3-R (P41968 whole entry): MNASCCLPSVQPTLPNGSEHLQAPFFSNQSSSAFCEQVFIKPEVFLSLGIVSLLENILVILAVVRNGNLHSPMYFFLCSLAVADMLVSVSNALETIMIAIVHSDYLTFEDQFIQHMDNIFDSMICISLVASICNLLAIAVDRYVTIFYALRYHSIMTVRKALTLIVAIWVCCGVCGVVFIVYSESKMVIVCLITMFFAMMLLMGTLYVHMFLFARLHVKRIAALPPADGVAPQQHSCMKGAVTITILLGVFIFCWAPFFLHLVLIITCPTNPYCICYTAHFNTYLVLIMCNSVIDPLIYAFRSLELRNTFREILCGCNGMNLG
Method: as §1, §2

hMC4-R = hMC4-R (Homo sapiens, UniProt P32245); assay: Competitive inhibition binding assay, 125I-NDP-α-MSH, hMC4-R membranes; conditions: 1 μM test compound; 0.4 nM 125I-NDP-α-MSH; mean of triplicate; results less than 0% reported as 0%; read-out: Inhibition at 1 μM MC4-R
Chain of hMC4-R (P32245 whole entry): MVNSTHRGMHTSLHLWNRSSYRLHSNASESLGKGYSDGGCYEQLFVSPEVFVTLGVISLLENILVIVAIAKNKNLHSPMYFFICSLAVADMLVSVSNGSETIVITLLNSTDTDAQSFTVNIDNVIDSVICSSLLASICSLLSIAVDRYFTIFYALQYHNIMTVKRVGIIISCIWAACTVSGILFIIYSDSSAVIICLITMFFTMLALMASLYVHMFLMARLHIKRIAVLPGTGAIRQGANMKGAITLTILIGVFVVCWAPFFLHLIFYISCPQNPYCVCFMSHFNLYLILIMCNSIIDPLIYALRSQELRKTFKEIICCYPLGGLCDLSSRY
Method: as §1, §2

| SMILES | inhibition at 1 µM [1] [%] | inhibition at 1 µM (hMC5-R) [%] | inhibition at 1 µM (hMC3-R) [%] | inhibition at 1 µM (hMC4-R) [%] |
| --- | --- | --- | --- | --- |
| N[C@H](Cc1ccc2ccccc2c1)C(=O)N1C[C@H](Cc2ccccc2)NC[C@H]1Cc1ccccc1 [Example 8, (R)-2-Amino-1-((2R,5S)-2,5-dibenzyl-piperazin-1-yl)-3-naphthalen-2-yl-propan-1-one] | 0 | 10 | 0 | 0 |
| N[C@@H](Cc1ccccc1)C(=O)N1C[C@H](Cc2ccccc2)NC[C@H]1Cc1ccccc1 [Example 9, (S)-2-Amino-1-((2R,5S)-2,5-dibenzyl-piperazin-1-yl)-3-phenyl-propan-1-one] | 0 | 0 | 0 | 0 |
| N[C@H](Cc1ccc(Cl)cc1Cl)C(=O)N1C[C@H](Cc2ccccc2)NC[C@H]1Cc1ccccc1 [Example 10, (R)-2-Amino-1-((2R,5S)-2,5-dibenzyl-piperazin-1-yl)-3-(2,4-dichloro-phenyl)-propan-1-one] | 0 | 0 | 0 | 13 |
| N[C@H](Cc1ccccc1Cl)C(=O)N1CCN[C@H](Cc2ccc3ccccc3c2)C1 [Example 11, (R)-2-Amino-3-(2-chloro-phenyl)-1-((R)-3-naphthalen-2-ylmethyl-piperazin-1-yl)-propan-1-one] | 4 | 0 | 19 | 9 |
| N[C@@H](Cc1c[nH]cn1)C(=O)N[C@H](Cc1ccccc1Cl)C(=O)N1CCN[C@H](Cc2ccc3ccccc3c2)C1 [Example 12, (S)-2-Amino-N—[(R)-1-(2-chloro-benzyl)-2-((R)-3-naphthalen-2-ylmethyl-piperazin-1-yl)-2-oxo-ethyl]-3-(1H-imidazol-4-yl)-propionamide] | 52 | 12 | 18 | 0 |
| O=C(N[C@H](Cc1ccccc1Cl)C(=O)N1CCN[C@H](Cc2ccc3ccccc3c2)C1)[C@H]1Cc2ccccc2CN1 [Example 13, (R)-1,2,3,4-Tetrahydro-isoquinoline-3-carboxylic acid [(R)-1-(2-chloro-benzyl)-2-((R)-3-naphthalen-2-ylmethyl-piperazin-1-yl)-2-oxo-ethyl]-amide] | 24 | 20 | 17 | 19 |
| N[C@@H](COCc1ccccc1)C(=O)N[C@H](Cc1ccccc1Cl)C(=O)N1CCN[C@H](Cc2ccc3ccccc3c2)C1 [Example 14, (S)-2-Amino-3-benzyloxy-N—[(R)-1-(2-chloro-benzyl)-2-((R)-3-naphthalen-2-ylmethyl-piperazin-1-yl)-2-oxo-ethyl]-propionamide] | 46 | 23 | 33 | 56 |
| N[C@H](Cc1ccc2ccccc2c1)C(=O)N1C[C@@H](Cc2ccccc2)NC[C@@H]1Cc1ccccc1 [Example 15, (R)-2-Amino-1-((2S,5R)-2,5-dibenzyl-piperazin-1-yl)-3-naphthalen-2-yl-propan-1-one] | 0 | 3 | 0 | 18 |
| N[C@H](Cc1ccc(Cl)cc1Cl)C(=O)N1C[C@@H](Cc2ccccc2)NC[C@@H]1Cc1ccccc1 [Example 16, (R)-2-Amino-1-((2S,5R)-2,5-dibenzyl-piperazin-1-yl)-3-(2,4-dichloro-phenyl)-propan-1-one] | 0 | 0 | 0 | 14 |
| N[C@H](Cc1ccccc1)C(=O)N1C[C@@H](Cc2ccccc2)NC[C@@H]1Cc1ccccc1 [Example 17, (R)-2-Amino-1-((2S,5R)-2,5-dibenzyl-piperazin-1-yl)-3-phenyl-propan-1-One] | 0 | 3 | 0 | 6 |
| N[C@@H](Cc1ccccc1)C(=O)N1C[C@@H](Cc2ccccc2)NC[C@@H]1Cc1ccccc1 [Example 18, (S)-2-Amino-1-((2S,5R)-2,5-dibenzyl-piperazin-1-yl)-3-phenyl-propan-1-one] | 0 | 12 | 0 | 8 |
| N[C@H](Cc1ccc(Cl)cc1)C(=O)N1CCN[C@H](Cc2ccc3ccccc3c2)C1 [Example 19, (R)-2-Amino-3-(4-chloro-phenyl)-1-((R)-3-naphthalen-2-ylmethyl-piperazin-1-yl)-propan-1-one] | 5 | 0 | 0 | 21 |
| N[C@@H](Cc1c[nH]cn1)C(=O)N[C@H](Cc1ccc(Cl)cc1)C(=O)N1CCN[C@H](Cc2ccc3ccccc3c2)C1 [Example 20, (S)-2-Amino-N—[(R)-1-(4-chloro-benzyl)-2-((R)-3-naphthalen-2-ylmethyl-piperazin-1-yl)-2-oxo-ethyl]-3-(1H-imidazol-4-yl)-propionamide] | 71 | 0 | 18 | 25 |
| O=C(N[C@H](Cc1ccc(Cl)cc1)C(=O)N1CCN[C@H](Cc2ccc3ccccc3c2)C1)[C@H]1Cc2ccccc2CN1 [Example 21, (R)-1,2,3,4-Tetrahydro-isoquinoline-3-carboxylic acid [(R)-1-(4-chloro-benzyl)-2-((R)-3-naphthalen-2-ylmethyl-piperazin-1-yl)-2-oxo-ethyl]-amide] | 6 | 14 | 26 | 30 |
| N[C@@H](COCc1ccccc1)C(=O)N[C@H](Cc1ccc(Cl)cc1)C(=O)N1CCN[C@H](Cc2ccc3ccccc3c2)C1 [Example 22, (S)-2-Amino-3-benzyloxy-N—[(R)-1-(4-chloro-benzyl)-2-((R)-3-naphthalen-2-ylmethyl-piperazin-1-yl)-2-oxo-ethyl]-propionamide] | 2 | 27 | 54 | 36 |
| CC(=O)N[C@H](Cc1ccc(Cl)cc1)C(=O)N1CCN[C@H](Cc2ccc3ccccc3c2)C1 [Example 23, N—[(R)-1-(4-Chloro-benzyl)-2-((R)-3-naphthalen-2-ylmethyl-piperazin-1-yl)-2-oxo-ethyl]-acetamide] | 6 | 4 | 0 | 13 |
| O=C(CCCc1ccccc1)N[C@H](Cc1ccc(Cl)cc1)C(=O)N1CCN[C@H](Cc2ccc3ccccc3c2)C1 [Example 24, N—[(R)-1-(4-Chloro-benzyl)-2-((R)-3-naphthalen-2-ylmethyl-piperazin-1-yl)-2-oxo-ethyl]-4-phenyl-butyramide] | 5 | 13 | 3 | 20 |
| O=C(Cc1ccccc1)N[C@H](Cc1ccc(Cl)cc1)C(=O)N1CCN[C@H](Cc2ccc3ccccc3c2)C1 [Example 25, N—[(R)-1-(4-Chloro-benzyl)-2-((R)-3-naphthalen-2-ylmethyl-piperazin-1-yl)-2-oxo-ethyl]-2-phenyl-acetamide] | 5 | 18 | 6 | 19 |
| Cc1ccc(S(=O)(=O)N[C@H](Cc2ccc(Cl)cc2)C(=O)N2CCN[C@H](Cc3ccc4ccccc4c3)C2)cc1 [Example 26, N—[(R)-1-(4-Chloro-benzyl)-2-((R)-3-naphthalen-2-ylmethyl-piperazin-1-yl)-2-oxo-ethyl]-4-methyl-benzenesulfonamide] | 10 | 20 | 14 | 22 |
| CC(=O)Oc1ccccc1C(=O)N[C@H](Cc1ccc(Cl)cc1)C(=O)N1CCN[C@H](Cc2ccc3ccccc3c2)C1 [Example 27] | 10 | 0 | 0 | 4 |
| CCCC(CCC)C(=O)N[C@H](Cc1ccc(Cl)cc1)C(=O)N1CCN[C@H](Cc2ccc3ccccc3c2)C1 [Example 28, 2-Propyl-pentanoic acid [(R)-1-(4-chloro-benzyl)-2-((R)-3-naphthalen-2-ylmethyl-piperazin-1-yl)-2-oxo-ethyl]-amide] | 0 | -4 | 0 | 38 |
